The record followed here is publication PMC6151529, “Design, Synthesis and Biological Evaluation of N,N-Substituted Amine Derivatives as Cholesteryl Ester Transfer Protein Inhibitors” (Molecules : A Journal of Synthetic Chemistry and Natural …, 2017).

One data set concerns the target T1, CETP (Homo sapiens, UniProt P11597).
T1 construct: purchased Roar, New York, NY, USA RB-RPAK
T1 sequence (P11597 18-493): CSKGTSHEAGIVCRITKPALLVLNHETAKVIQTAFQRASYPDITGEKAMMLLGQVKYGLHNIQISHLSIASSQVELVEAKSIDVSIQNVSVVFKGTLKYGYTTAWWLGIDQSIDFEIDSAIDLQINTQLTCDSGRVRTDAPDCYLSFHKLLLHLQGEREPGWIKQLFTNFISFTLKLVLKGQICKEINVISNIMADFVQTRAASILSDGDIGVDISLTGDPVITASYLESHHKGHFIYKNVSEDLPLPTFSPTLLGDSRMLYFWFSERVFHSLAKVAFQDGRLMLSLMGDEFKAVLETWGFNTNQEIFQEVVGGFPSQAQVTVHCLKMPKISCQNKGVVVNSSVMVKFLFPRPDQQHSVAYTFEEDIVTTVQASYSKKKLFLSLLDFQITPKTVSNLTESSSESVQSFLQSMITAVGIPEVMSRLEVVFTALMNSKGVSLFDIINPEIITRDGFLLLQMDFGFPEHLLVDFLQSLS
Briefly: CETP inhibitory activity, BODIPY-CE fluorescence assay (CETP RP Activity Assay Kit). It counts as biochemical. Here is the method:
All tested compounds were dissolved in 100% DMSO, making sure the compound was dissolved totally. The solution was vibrated hard on an oscillator for more than 30 s and then stored in a nitrogen cabinet. The stock solutions (10 mM) were diluted with DMSO for an 8-point titration (1:5 serial dilutions) in a 96-well dilution plate. […] Compounds were tested at eight concentrations, and the fluorescence intensity were measured using a fluorometer (ExEm = 465/535 nm). The IC50 was determined from a curve fit of the data with each concentration tested three times.

A short description of data set [1]: Metabolic stability in human liver microsomes. It counts as in vitro ADME. The following applies: 37 °C, NADPH, 0-60 min, read-out: HLM Stability (human liver microsomal intrinsic clearance). The protocol:
(§1) Ten μL (100 μM/L) of compound and 80 μL liver microsomes were mixture and incubated at 37 °C for 10 min, and then 10 μL NADPH regenerating system was added. Samples were obtained at 0 min, 5 min, 10 min, 20 min, 30 min and 60 min respectively, and 300 μL stop solution (cold in 4 °C, including 100 ng/mL tolbutamide and 100 ng/mL labetalol) was added to terminate the reaction. After oscillating for 10 min, the plates were centrifuged (4000 rpm) at room temperature for 20 min, and the supernatants were used for analyzation.
(Liver microsomes are a subcellular fraction often used to study metabolism.)

The nature of data set [2]: Metabolic stability in rat liver microsomes. The class given is in vitro ADME. The settings on record: 37 °C, NADPH, 0-60 min, read-out: RLM Stability (rat liver microsomal intrinsic clearance). Here is the method:
as §1

Another data set has as its target T2, CYP3A4 (Homo sapiens, UniProt P08684).
T2 construct: from tissue; host or cells: human liver microsomes
Briefly: Cytochrome P450 inhibition assay, CYP3A4. The settings on record: human liver microsomes, pH 7.4, probe midazolam (2 μM), 10 μM compound, human liver microsomes 0.25 mg/mL, substrate midazolam, read-out: CYPs Direct Inhibition Mean (10 μM) 3A4. It counts as in vitro ADME. Here is the method:
(§2) Five specific probe substrates (CYP3A4, 2 μM midazolam; CYP2D6, 5 μM dextromethorphan; CYP2C9, 5 μM diclofenac; CYP1A2, 10 μM phenacetin; CYP2C19, 30 μM S-mephenytoin) were used to evaluated cytochrome P450 inhibition in human liver microsomes (0.25 mg/mL). A mixture of 20 μL specific probe substrate solution and 20 μL buffer solution (100 mM K3PO4, 33 mM MgCl2, pH = 7.4) was added compound (2 μL) and 158 μL human liver microsomes solution (0.25 mg/mL). The mixture were incubated at 37 °C for 10 min and another 10 min underwent after 20 μL NADPH solution added. Consecutively, 400 µL cold stop solution (200 ng/mL tolbutamide and 200 ng/mL labetalol in acetonitrile) was added to terminated the reaction. After the reactions were terminated, The plates were centrifuged (4000 rpm) at room temperature for 20 min, and the supernatants were analysed by LC/MS/MS.

The target in a further data set is T3, CYP2D6 (Homo sapiens, UniProt P10635).
T3 construct: from tissue; host or cells: human liver microsomes
T3 sequence (P10635 whole entry): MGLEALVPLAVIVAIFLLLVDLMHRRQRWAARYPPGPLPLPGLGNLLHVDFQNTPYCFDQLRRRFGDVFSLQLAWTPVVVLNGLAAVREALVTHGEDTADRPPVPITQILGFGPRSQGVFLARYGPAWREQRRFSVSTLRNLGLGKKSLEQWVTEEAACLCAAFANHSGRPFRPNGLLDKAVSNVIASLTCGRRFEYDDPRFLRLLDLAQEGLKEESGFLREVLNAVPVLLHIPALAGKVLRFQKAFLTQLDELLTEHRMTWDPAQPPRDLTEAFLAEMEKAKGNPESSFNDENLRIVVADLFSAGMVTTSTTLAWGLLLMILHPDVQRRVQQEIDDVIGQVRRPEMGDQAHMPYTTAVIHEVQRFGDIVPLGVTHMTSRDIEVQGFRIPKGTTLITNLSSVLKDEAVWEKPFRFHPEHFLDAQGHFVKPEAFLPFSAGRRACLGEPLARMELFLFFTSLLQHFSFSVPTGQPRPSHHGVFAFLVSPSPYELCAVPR
Briefly: Cytochrome P450 inhibition assay, CYP2D6. The class given is in vitro ADME. The following applies: 10 μM compound, human liver microsomes 0.25 mg/mL, substrate dextromethorphan. Here is the method:
as §2

A further data set concerns the target T4, CYP2C9 (Homo sapiens, UniProt P11712).
T4 construct: from tissue; host or cells: human liver microsomes
Briefly: Cytochrome P450 inhibition assay, CYP2C9. The class given is in vitro ADME. The settings on record: human liver microsomes, pH 7.4, probe diclofenac (5 μM), 10 μM compound, human liver microsomes 0.25 mg/mL, substrate diclofenac, read-out: CYPs Direct Inhibition Mean (10 μM) 2C9. Here is the method: as §2

For another data set, the target named is T5, CYP1A2 (Homo sapiens, UniProt P05177).
T5 construct: from tissue; host or cells: human liver microsomes
T5 sequence (P05177 1-516): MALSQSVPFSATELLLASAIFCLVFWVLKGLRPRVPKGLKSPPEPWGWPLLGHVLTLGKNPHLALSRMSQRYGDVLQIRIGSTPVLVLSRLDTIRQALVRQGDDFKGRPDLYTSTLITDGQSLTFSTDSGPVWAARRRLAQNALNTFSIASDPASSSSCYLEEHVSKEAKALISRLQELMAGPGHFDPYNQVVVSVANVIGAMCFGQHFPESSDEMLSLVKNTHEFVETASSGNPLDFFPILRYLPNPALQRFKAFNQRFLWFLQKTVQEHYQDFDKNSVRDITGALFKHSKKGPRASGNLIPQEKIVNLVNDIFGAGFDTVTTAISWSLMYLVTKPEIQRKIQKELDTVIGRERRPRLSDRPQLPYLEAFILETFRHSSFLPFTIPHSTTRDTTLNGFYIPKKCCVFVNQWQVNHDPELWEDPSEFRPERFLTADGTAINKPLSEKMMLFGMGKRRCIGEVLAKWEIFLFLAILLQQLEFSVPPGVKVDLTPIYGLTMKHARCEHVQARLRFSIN
Briefly: Cytochrome P450 inhibition assay, CYP1A2. The class given is in vitro ADME. The following applies: 10 μM compound, human liver microsomes 0.25 mg/mL, substrate phenacetin. The protocol:
as §2

T4 sequence (P11712 whole entry): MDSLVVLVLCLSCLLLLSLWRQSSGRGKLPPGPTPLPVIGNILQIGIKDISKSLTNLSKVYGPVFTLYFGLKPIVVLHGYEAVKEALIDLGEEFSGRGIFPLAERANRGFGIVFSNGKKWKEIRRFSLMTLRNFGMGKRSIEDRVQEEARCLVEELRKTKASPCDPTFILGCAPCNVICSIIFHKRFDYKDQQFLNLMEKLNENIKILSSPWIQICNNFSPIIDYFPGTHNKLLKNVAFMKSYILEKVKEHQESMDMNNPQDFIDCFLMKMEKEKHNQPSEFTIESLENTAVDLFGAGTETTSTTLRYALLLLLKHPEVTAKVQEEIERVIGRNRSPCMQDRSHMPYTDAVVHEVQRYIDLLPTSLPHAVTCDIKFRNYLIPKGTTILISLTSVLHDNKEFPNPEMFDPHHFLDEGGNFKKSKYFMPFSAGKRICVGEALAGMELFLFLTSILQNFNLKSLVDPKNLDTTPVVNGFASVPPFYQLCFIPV
T2 sequence (P08684 whole entry): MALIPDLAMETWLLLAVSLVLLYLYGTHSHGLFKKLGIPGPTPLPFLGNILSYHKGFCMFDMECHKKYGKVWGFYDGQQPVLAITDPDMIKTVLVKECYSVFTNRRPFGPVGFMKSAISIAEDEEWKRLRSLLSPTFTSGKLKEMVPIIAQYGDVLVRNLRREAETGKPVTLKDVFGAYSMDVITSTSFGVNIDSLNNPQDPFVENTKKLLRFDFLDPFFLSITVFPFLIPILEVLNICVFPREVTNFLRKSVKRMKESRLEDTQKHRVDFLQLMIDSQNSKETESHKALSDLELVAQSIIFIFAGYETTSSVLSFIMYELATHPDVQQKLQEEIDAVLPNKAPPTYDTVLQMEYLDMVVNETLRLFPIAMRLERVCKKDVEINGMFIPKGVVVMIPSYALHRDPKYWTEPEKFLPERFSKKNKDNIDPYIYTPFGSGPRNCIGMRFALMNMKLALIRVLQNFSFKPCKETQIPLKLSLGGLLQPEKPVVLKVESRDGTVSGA

In the case of `COc1ccc(C(C)C)cc1C1=C(CN(Cc2cc(C(F)(F)F)cc(C(F)(F)F)c2)c2nnn(CC(=O)O)n2)CC(C)(C)CC1` [Compound 17, N-(3,5-Bis(trifluoromethyl)benzyl)-N-((2-(5-isopropyl-2-methoxyphenyl)-5,5-dimethylcyclohex-1-enyl)-methyl)-2H-tetrazol-5-amine-2-acetic acid], the “activity weaker than the reference compound (fold)” value at CETP (IC50 versus reference compound anacetrapib) is given as 10 fold. Further, on CETP (read-out: IC50 (CETP inhibition)), the concentration for half-maximal inhibition (IC50) – broadly, the midpoint of a concentration-inhibition curve – is 380 ± 80 nM. Further, the microsomal CLint at 10 μM in data set [1] was found to be 119 µL/min/mg; in data set [2], 146 µL/min/mg. The inhibition (commonly the percentage by which the read-out fell short of the control) at 10 min, 10 µM was under 20% on CYP3A4; under 20% at CYP2D6 (pH 7.4, probe dextromethorphan (5 μM), read-out: CYPs Direct Inhibition Mean (10 μM) 2D6); under 20% at CYP2C9; under 20% at CYP1A2 (pH 7.4, probe phenacetin (10 μM), read-out: CYPs Direct Inhibition Mean (10 μM) 1A2). Besides, the “CYPs Direct Inhibition Mean (10 μM) 2D6” value at CYP2D6 is reported as “No inhibition”. Also, at CYP1A2, the “CYPs Direct Inhibition Mean (10 μM) 1A2” value was “No inhibition”.
